Columns and labels:
Type in all cases: cell-based
[1] = test system: bacteria from freshly-collected stimulated whole saliva (biofilm); experiment: Mixed culture saliva biofilm on saliva-coated hydroxyapatite discs (medium pH and OD 600 nm)
Procedure: A mixed culture system that utilizes the bacteria from freshly-collected stimulated whole saliva was used. Saliva cell pellets were used to inoculate saliva-coated hydroxyapatite (S-HA) discs. The discs were placed in 24-well cell culture plates and incubated for up to 3 days. Biofilms were exposed to actives on days 2 and 3 (starting at 18 hours), and quantified on day 4. The number of bacteria was determined by spectrophotometric absorbance or optical density (OD) at 600 nm. The five phases of the experiment were: pellicle formation; bacterial attachment; biofilm growth; exposure to actives; and bacterial enumeration. To form the pellicles, HA Discs were ultrasonically washed in deionized water and air-dried, then autoclaved. The discs were placed in a 24 well plate with 1 ml 50% sterile saliva (1 part sterile whole saliva: 1 part saliva buffer, filter sterilize after preparation) for 2 hours with slow agitation at room temperature. The saliva was suctioned and then the discs were transferred to fresh wells for bacterial attachment. The discs were inoculated with salivary bacteria by one of two methods: (1) incubation with saliva bacteria suspended in 50% saliva at a standard OD for 2-h at 37° C.; after the attachment phase the discs are transferred to supplemented saliva growth medium, or (2) direct addition of bacteria with media and incubation. To form the biofilms, the bacterial suspension was removed, and the discs were transferred to fresh wells. One ml of supplemented saliva medium was added and the plate was placed in the incubator for overnight incubation and for the duration of the experiment (up to 72 hours). A stock solution of 1% Magnolia Bark Extract in 60% ethanol was prepared. […] One ml quantities of active ingredients and controls were placed into fresh wells, and the discs transferred to these wells for 5 minutes. The chlorhexidine control exposure was one minute, two times a day to mimic the standard mouth-rinse procedure. The exposure to active ingredient was carried out at 8:00 AM, 12:00 and 4:00 PM. After the timed exposure, the solution was removed and the discs washed twice with PBS and then transferred to fresh medium. For some experiments, the medium used during the day was Tryptic Soy Broth (TSB) with a 50 μl 40% sterile sucrose solution added to each well (to give a 2% sucrose solution). The medium was not replaced after the mid-day exposure. After overnight incubation (day 2), discs were exposed to controls and actives. On day 3 the biofilms were again exposed to tests and controls. On day 4 the discs were removed from the medium, the medium pH was measured to obtain an indication of metabolic activity, and the discs were placed into tubes with 2.5 ml PBS, vortexed for 20s, and then placed into the ultrasonic bath for another 20 sec. The suspension was transferred into cuvettes and the bacterial cell density determined by OD measurements at 600 nm. To evaluate the effect of Magnolia Bark Extract in combination with the surface active agent, sodium lauryl sulfate, five active ingredient solutions were prepared using the procedures described above. […] Also, the MBE solutions were prepared to have a concentration of 500 ppm. Sodium lauryl sulfate was added to two of the Magnolia Bark Extract solutions to obtain SLS concentrations of 0.05% and 0.1% in the Magnolia Bark Extract solutions. The testing with Magnolia Bark Extract described above was repeated with the five solutions.

S. mutans = experiment: MIC and fractional inhibitory index of MBE/surface active agent combinations on S. mutans; settings: 24 hours at 37° C.
Procedure: (§1) To evaluate the germ-kill efficacy and synergist effect when two or more germ-kill actives are combined, testing was performed to determine the ratio of MBE to surface active agent. […] These dilutions were inoculated with representative oral microorganisms, or incubated saliva, and incubated for 24 hours at 37° C. For each surface active agent, the lowest dilution that was not turbid was registered as the MIC.

incubated saliva = experiment: MIC of surface active agents and emulsifiers on incubated saliva; settings: for MIC (ppm): incubated saliva, 24 hours at 37° C.; for germ-kill efficacy: assessment in words of Table 9
Procedure: as §1, with “agent. The germ-kill active and/or surface active agent was dissolved in ethanol or sterile water to give an initial concentration 0.1% to 1%.” for “agent.”, “MIC. The MBC was determined by transferring 10 microliter of liquid from non-turbid tubes to fresh growth media and incubated for 48 hrs.” for “MIC.”

Compound	MIC (ppm) (incubated saliva)	germ-kill efficacy (incubated saliva)	other results
[H]/N=C(\N/C(=N/[H])NCCCCCCNC(=N)NC(=N)Nc1ccc(Cl)cc1)Nc1ccc(Cl)cc1 [CHX, chlorhexidine]	–	–	% OD reduction ([1]; OD 600 nm vs PBS control, CHX 0.12%, one minute, two times a day): 84%; % OD reduction ([1]; SLS combination experiment, OD 600 nm, CHX 0.1% (1000 ppm)): 94%; pH ([1]; SLS combination experiment, CHX 0.1% (1000 ppm)): 8.8; pH ([1]; medium pH day 4, CHX 0.12%, exposure one minute, two times a day): 8.8
N=C(NCCCCCCNC(=N)NC(=N)Nc1ccc(Cl)cc1)NC(=N)Nc1ccc(Cl)cc1.O=C(O)[C@H](O)[C@@H](O)[C@H](O)[C@H](O)CO.O=C(O)[C@H](O)[C@@H](O)[C@H](O)[C@H](O)CO [Chlorhexidine gluconate, reference compound]	2 ppm	–	MIC/ppm (S. mutans): 2 ppm
CCCCCCCCCCCCOS(=O)(=O)[O-].[Na+] [SLS, sodium lauryl sulfate]	–	good germ-kill surface active agents	% OD reduction ([1]; SLS combination experiment, OD 600 nm, 1000 ppm): 61%; pH ([1]; SLS combination experiment, 1000 ppm): 5.7
CCCCCCCCCCCC(=O)OCCOCCOCCOCCOCCOCCOCCOCCOCCOCCOCCOCCOCCOCCOCCOCCOCCOCCOCCOCCOCC(OCCOCCOCCOCCOCCOCCOCCOCCOCCOCCOCCOCCOCCOCCOCCOCCOCCOCCOCCOCCO)C1OCC(OCCOCCOCCOCCOCCOCCOCCOCCOCCOCCOCCOCCOCCOCCOCCOCCOCCOCCOCCOCCO)C1OCCOCCOCCOCCOCCOCCOCCOCCOCCOCCOCCOCCOCCOCCOCCOCCOCCOCCOCCOCCO (stereo not shown) [Tween 20, Polysorbate 20]	–	weak or non germ-kill actives	–
Cocamidopropyl Betaine	–	good germ-kill surface active agents	–
Sodium Brasslate	500 ppm	moderate germ-kill efficacy	–
Sodium Stearoyl Lactylate	>3000 ppm	weak or non germ-kill actives	–
Sucrose Distearate	>500 ppm	weak or non germ-kill actives	–
Sucrose Stearate	>500 ppm	weak or non germ-kill actives	–
